Data taken from paper PMC6515314 (Molecules, 2019).
Starred links: 1 amine or outer side, 2 acyl side, 3 side chain; linkers in the order of their positions; H or OH if unused. Non-standard residues stand in square brackets, D forms with d. Residues, ends and D or L forms follow the SMILES beside them. X1 = O=C([C@H](Cc1cncn1CCCCc1cn(Cc2c(F)cccc2Oc2ccccc2)nn1)N[*:1])[*:2]; X3 = O=C([C@H](Cc1cncn1CCCCc1cn(Cc2ccc(F)c(Cl)c2)nn1)N[*:1])[*:2]; X4 = O=C([C@H](Cc1cncn1CCCCc1cn(Cc2ccc(F)cc2)nn1)N[*:1])[*:2]; X2 = O=C([C@H](Cc1cncn1CCCCc1cn(Cc2ccccc2)nn1)N[*:1])[*:2]; X5 = C#CCCCCn1cncc1C[C@H](N[*:1])C(=O)[*:2]; pT = C[C@@H](OP(=O)(O)O)[C@H](N)C(=O)O; Pra = C#CC[C@H](N)C(=O)O

Assays:
Assay type in all cases: binding
[1] = biological target: T1, Plk1 PBD (Homo sapiens, UniProt P53350); experiment: Fluorescence polarization (FP) assay, isolated Plk1 PBD; conditions: for IC50: FP assay, average ± SEM
T1 construct: a plasmid encoding myc-tagged Plk1 PBD was purchased from Addgene; host or cells: HEK-293T
T1 sequence (P53350 326-603 limits assumed): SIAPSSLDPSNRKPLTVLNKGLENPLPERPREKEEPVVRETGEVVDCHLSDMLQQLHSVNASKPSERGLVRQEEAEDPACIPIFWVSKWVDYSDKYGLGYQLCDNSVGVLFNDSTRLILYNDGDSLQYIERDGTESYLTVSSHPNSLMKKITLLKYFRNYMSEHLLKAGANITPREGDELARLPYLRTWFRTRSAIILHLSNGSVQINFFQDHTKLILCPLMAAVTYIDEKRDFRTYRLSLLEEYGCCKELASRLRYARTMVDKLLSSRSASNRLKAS
Procedure: (§1) Plasmids encoding the myc-tagged PBDs of Plk2 and Plk3 were generous gifts from Prof. […] The supernatant containing expressed protein was diluted into 8 mL of PBS (pH 7.4) containing protease/phosphatase inhibitor cocktail. This protein solution was added to a 1 mL bed of myc-agarose resin (Thermo Scientific, Waltham, MA, USA) and allowed to bind for 2 h at 4 °C with gentle rotation. The lysate was eluted and the resin was washed 4× with 4-(2-hydroxyethyl)-1-piperazineethanesulfonic acid (HEPES) buffered saline (HBS) containing 0.05% Tween-20, 1 mM dithiothreitol (DTT) and 1 mM ethylenediaminetetraacetic acid (EDTA). The bound PBD protein was then eluted with a 1 mg/mL solution of myc peptide ([…]) in HBS + 1 mM DTT and 1 mM EDTA. […] The concentration of the final protein solution was determined by absorbance at 280 nm and purity was determined by SDS-PAGE (sodium dodecyl sulfate-polyacrylamide gel electrophoresis) with Coomassie staining.
As previously reported, isolated PBD protein was diluted to a 2× working dilution in assay buffer (HEPES-buffered saline with 0.05% Tween-20, 1 mM DTT, and 1 mM EDTA). […] Inhibitors were serially diluted to generate 4× working dilutions in assay buffer containing 4% DMSO. 20 μL of 2× PBD solution was added to each well of a 384-well plate (0% binding controls received 20 μL of assay buffer). 10 μL of the 4× inhibitor solution (or DMSO blank) was added to corresponding wells and allowed to pre-incubate at RT for 30 min with shaking. The following sequences were utilized as fluorescent probes: 5CF-GPMQSpTPLNG-NH2 for Plk1 PBD; 5CF-GPMQTSpTPKNG-NH2 for Plk2 PBD and 5CF-PLATSpTPKNG-NH2 for Plk3 PBD [10]. Fluorescent probes were diluted to 40 nM (4×) in assay buffer and then 10 μL was added to each well. The plate was allowed to equilibrate at room temperature for (30 min) with shaking. […] The FP values were obtained in triplicate and normalized to 100% (no inhibitor) and 0% binding (no protein) controls. Normalized values were plotted versus concentration and analyzed using non-linear regression in GraphPad Prism 8 (GraphPad Software, San Diego, CA, USA) [log(inhibitor) vs. response-variable slope (four parameter) model].

[2] = biological target: T2, full-length Plk1 (Homo sapiens, UniProt P53350); experiment: ELISA assay using full-length Plk1
T2 construct: a plasmid encoding myc-tagged full-length Plk1 (Addgene, Plasmid #41160); host or cells: HEK-293T (crude cytosolic lysate, not purified)
T2 sequence (P53350 whole entry): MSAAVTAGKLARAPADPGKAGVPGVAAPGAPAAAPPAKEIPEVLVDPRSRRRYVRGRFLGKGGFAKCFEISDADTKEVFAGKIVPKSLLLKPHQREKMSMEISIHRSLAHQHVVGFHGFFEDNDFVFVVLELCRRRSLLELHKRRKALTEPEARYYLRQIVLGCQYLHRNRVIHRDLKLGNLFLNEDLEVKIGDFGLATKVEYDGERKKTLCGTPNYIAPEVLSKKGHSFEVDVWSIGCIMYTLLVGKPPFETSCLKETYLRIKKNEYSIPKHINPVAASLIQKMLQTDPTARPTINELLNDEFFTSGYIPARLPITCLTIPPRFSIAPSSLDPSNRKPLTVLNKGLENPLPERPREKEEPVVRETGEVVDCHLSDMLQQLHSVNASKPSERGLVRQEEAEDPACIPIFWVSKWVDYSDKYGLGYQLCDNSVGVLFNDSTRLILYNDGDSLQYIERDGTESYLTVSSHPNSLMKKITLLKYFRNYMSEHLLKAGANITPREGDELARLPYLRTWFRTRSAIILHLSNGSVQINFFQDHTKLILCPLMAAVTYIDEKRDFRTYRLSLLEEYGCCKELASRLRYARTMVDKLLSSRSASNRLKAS
Procedure: Following 48 h expression, cells were harvested, lysed in buffer (PBS, pH 7.4 with 0.5% NP-40 and protease/phosphatase inhibitor cocktail) using freeze/thaw cycles (3×) and centrifuged at 10,000× g for 10 min at 4 °C. The supernatant was removed to provide a crude cytosolic lysate containing overexpressed, myc-tagged Plk1 (total protein concentration determined by bicinchoninic acid (BCA) assay).
As previously reported [25, 26, 50] a biotinylated phosphopeptide (sequence: Biotin-Ahx-PMQS(pT)PLN-NH2) was diluted to 1 µM (from a 2 mM DMSO stock solution) in PBS (pH 7.4) and loaded onto the wells of a 96-well Neutravidin-coated plate (Pierce Biotechnology, ThermoFisher Scientific, Waltham, MA, USA) at 100 µL per well for 1 h (background control contained no biotinylated peptide). The wells were washed once with 150 µL PBST (PBS, pH 7.4 + 0.05% Tween-20), and then 100 µL of 1% BSA in PBS (pH 7.4) (blocking buffer) was added for 1 h. A cytosolic lysate-containing transiently expressed myc-tagged Plk1 protein was diluted to 300 µg/mL in PBS (pH 7.4) containing protease/phosphatase inhibitors (Pierce Biotechnology), mixed with competitive inhibitor (from a 10× stock in ~4% DMSO/PBS), and allowed to pre-incubate for 1 h (100 µL per well in a 96-well plate, 30 µg total protein). The blocked ELISA plate was washed 2× with PBST (PBS, pH 7.4 + 0.05% Tween-20) (150 µL) and the pre-incubated lysates were added to the plate and incubated (1 h). […] The wells were then washed 5× with PBST (150 µL) and incubated with Turbo TMB (3,3′,5,5′-tetramethyl benzidine substrate)-ELISA solution (Pierce Biotechnology) until the desired absorbance was reached (5–10 min). The reaction was quenched by the addition of 2 N aqueous H2SO4 and the absorbance was measured at 450 nm using a BioTek Synergy 2 96-well plate reader. Absorbance was plotted versus concentration (logM) and fit to a non-linear regression analysis using GraphPad Prism 8 software [model: log(inhibitor) vs. response-variable slope (four parameters)].

[3] = biological target: T3, Plk3 PBD (Homo sapiens, UniProt Q9H4B4); experiment: Fluorescence polarization (FP) assay, isolated Plk3 PBD; conditions: average ± SEM
T3 sequence (Q9H4B4 418-646 limits assumed): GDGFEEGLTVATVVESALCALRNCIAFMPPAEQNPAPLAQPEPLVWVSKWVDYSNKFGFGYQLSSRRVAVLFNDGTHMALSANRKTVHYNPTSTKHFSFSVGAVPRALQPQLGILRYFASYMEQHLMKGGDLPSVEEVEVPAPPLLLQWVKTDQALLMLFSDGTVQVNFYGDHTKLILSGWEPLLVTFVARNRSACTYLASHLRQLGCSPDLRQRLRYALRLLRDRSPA
Procedure: as §1
(§2) As previously reported, isolated PBD protein was diluted to a 2× working dilution in assay buffer (HEPES-buffered saline with 0.05% Tween-20, 1 mM DTT, and 1 mM EDTA). […] Normalized values were plotted versus concentration and analyzed using non-linear regression in GraphPad Prism 8 (GraphPad Software, San Diego, CA, USA) [log(inhibitor) vs. response-variable slope (four parameter) model].

[4] = tested on: Plk2 PBD; experiment: Fluorescence polarization (FP) assay, isolated Plk2 PBD; conditions: average ± SEM
Procedure: as §1, §2

With CC(=O)N1CCC[C@H]1C(=O)N[C@@H](CC(C)C)C(=O)N[C@@H](Cc1cncn1CCCCc1cn(Cc2ccccc2)nn1)C(=O)N[C@@H](CO)C(=O)N[C@H](C(N)=O)[C@@H](C)OP(=O)(O)O [Peptide 3a] (Ac-PL[X2]S[pT]-NH2) the “relative loss of Plk1 PBD-binding affinity versus peptide 2a” value ([1]; FP) was about 8 fold and the IC50 [1] was 110 ± 6.6 nM.

With CC(=O)N1CCC[C@H]1C(=O)N[C@@H](CC(C)C)C(=O)N[C@@H](Cc1cncn1CCCCc1cn(Cc2ccc(F)cc2)nn1)C(=O)N[C@@H](CO)C(=O)N[C@H](C(N)=O)[C@@H](C)OP(=O)(O)O [Peptide 3b] (Ac-PL[X4]S[pT]-NH2) the IC50 [1] was 100 ± 19 nM.

With CC(=O)N1CCC[C@H]1C(=O)N[C@@H](CC(C)C)C(=O)N[C@@H](Cc1cncn1CCCCc1cn(Cc2ccc(F)c(Cl)c2)nn1)C(=O)N[C@@H](CO)C(=O)N[C@H](C(N)=O)[C@@H](C)OP(=O)(O)O [Peptide 3c] (Ac-PL[X3]S[pT]-NH2) the IC50 [1] was 130 ± 9.8 nM.

With CC(=O)N1CCC[C@H]1C(=O)N[C@@H](CC(C)C)C(=O)N[C@@H](Cc1cncn1CCCCc1cn(Cc2c(F)cccc2Oc2ccccc2)nn1)C(=O)N[C@@H](CO)C(=O)N[C@H](C(N)=O)[C@@H](C)OP(=O)(O)O [Peptide 3d] (Ac-PL[X1]S[pT]-NH2) the IC50 ([2]; ELISA, myc-tagged full-length Plk1 lysate, ± SEM, read-out: IC50 (nM) against full-length Plk1) was 12000 ± 2100 nM, the “Fold-change relative to isolated PBD value” ([2]; full-length Plk1 ELISA IC50 vs isolated PBD FP IC50) was 480 × and the “potency reduction in the full-length assay relative to the isolated PBD assay” value ([2]; full-length Plk1 ELISA vs isolated PBD FP) was 480 fold. For the same molecule, the IC50 [3] was 9900 ± 2200 nM, the IC50 [1] was 25 ± 1.6 nM and the IC50 [4] was 5900 ± 420 nM.

With C#CCCCCn1cncc1C[C@H](NC(=O)[C@H](CC(C)C)NC(=O)[C@@H]1CCCN1C(C)=O)C(=O)N[C@@H](CO)C(=O)N[C@H](C(N)=O)[C@@H](C)OP(=O)(O)O [Peptide 13] (Ac-PL[X5]S[pT]-NH2) the IC50 [1] was 1100 ± 45 nM.

For C#CC[C@H](NC(=O)[C@H](CC(C)C)NC(=O)[C@@H]1CCCN1C(C)=O)C(=O)N[C@@H](CO)C(=O)N[C@H](C(N)=O)[C@@H](C)OP(=O)(O)O [Peptide 17] (Ac-PL[Pra]S[pT]-NH2), the “loss of Plk1 PBD-binding affinity compared with parent peptide 1” value ([1]; FP) was about 2 fold and the IC50 [1] was 1000 ± 140 nM.
